From PubChem BioAssay AID260 (DTP/NCI, 2004) come the findings set out here.

In the assay the test system is CD2F1 mice, intracerebral L1210 leukemia, survival T/C. In words: NCI In Vivo Anticancer Drug Screen. Data for tumor model L1210 Leukemia (intracerebral) in CD2F1 (CDF1) mice. The settings on record: higher = longer survival. The method, then:
The antitumor activity of compounds was measured in mice bearing transplantable tumors. Survival or tumor size were measured and the results are expressed as the measurement made in the treated group (T) divided by the measurement made in the vehicle treated control group (C). The tumor model used in this assay is L1210 Leukemia (intracerebral) in CD2F1 (CDF1) mice

Setting [1] is: endpoint: mean survival time, dose: 1.0 mg/kg/injection, schedule: Q01DX009 (ip), vehicle: saline.

Values joined by “and” are separate entries in the source; they are usually repeats but may differ in a detail not shown here. Equal values may be shown once. Toxic doses and inconclusive results are not listed.

For `C[C@]12C=CC(=O)C=C1CC[C@@H]1[C@@H]2CC[C@]2(C)OC(=O)CC[C@@H]12`, the T/C was 95 % of control and 111 % of control (endpoint: median survival time, dose: 8.0 mg/kg/injection, schedule: Q01DX009 (ip), vehicle: saline with Tween-80); 98 % of control and 102 % of control (endpoint: median survival time, dose: 16.0 mg/kg/injection, schedule: Q01DX009 (ip), vehicle: saline with Tween-80); 101 % of control and 102 % of control (endpoint: median survival time, dose: 32.0 mg/kg/injection, schedule: Q01DX009 (ip), vehicle: saline with Tween-80); 93 % of control and 102 % of control (endpoint: median survival time, dose: 64.0 mg/kg/injection, schedule: Q01DX009 (ip), vehicle: saline with Tween-80); 90 % of control and 98 % of control (endpoint: median survival time, dose: 128.0 mg/kg/injection, schedule: Q01DX009 (ip), vehicle: saline with Tween-80); 90 % of control and 98 % of control (endpoint: median survival time, dose: 256.0 mg/kg/injection, schedule: Q01DX009 (ip), vehicle: saline with Tween-80).
For `C[C@]12CCC(=O)C=C1CC[C@@H]1[C@@H]2[C@@H](O)C[C@@]2(C)[C@H]1CC[C@]2(O)C(=O)COP(=O)(O)OCC1OC(n2ccc(N)nc2=O)C(O)C1O` (stereo partly specified), the T/C was 116 % of control (endpoint: median survival time, dose: 18.75 mg/kg/injection, schedule: Q01DX005 (ip), vehicle: other); 160 % of control (endpoint: median survival time, dose: 150.0 mg/kg/injection, schedule: Q01DX005 (ip), vehicle: other); 169 % of control (endpoint: median survival time, dose: 300.0 mg/kg/injection, schedule: Q01DX005 (ip), vehicle: other).
`COc1ccc2c(c1)CCC(c1ccccc1)=C2c1ccc(OCCN2CCCC2)cc1`: the T/C was 98 % of control and 101 % of control (endpoint: median survival time, dose: 12.0 mg/kg/injection, schedule: Q01DX005 (ip), vehicle: Klucel (hydroxypropylcellulose) (HPC)); 106 % of control (endpoint: median survival time, dose: 24.0 mg/kg/injection, schedule: Q01DX005 (ip), vehicle: Klucel (hydroxypropylcellulose) (HPC)); 108 % of control (endpoint: median survival time, dose: 48.0 mg/kg/injection, schedule: Q01DX005 (ip), vehicle: Klucel (hydroxypropylcellulose) (HPC)); 106 % of control (endpoint: median survival time, dose: 96.0 mg/kg/injection, schedule: Q01DX005 (ip), vehicle: Klucel (hydroxypropylcellulose) (HPC)).
For `COC(=O)c1ccc(N=NN(C)C)cc1`, the T/C is, setting by setting: (endpoint: median survival time, dose: 8.0 mg/kg/injection, schedule: Q01DX005 (ip), vehicle: saline + alcohol) 104 % of control; (endpoint: median survival time, dose: 16.0 mg/kg/injection, schedule: Q01DX005 (ip), vehicle: saline + alcohol) 106 % of control; (endpoint: median survival time, dose: 32.0 mg/kg/injection, schedule: Q01DX005 (ip), vehicle: saline + alcohol) 113 % of control; (endpoint: median survival time, dose: 64.0 mg/kg/injection, schedule: Q01DX005 (ip), vehicle: saline + alcohol) 120 % of control; (endpoint: median survival time, dose: 128.0 mg/kg/injection, schedule: Q01DX005 (ip), vehicle: saline + alcohol) 112 % of control.
For `CN(C)N=Nc1cccc(C(N)=O)c1`, the T/C (endpoint: median survival time, dose: 10.0 mg/kg/injection, schedule: Q01DX005 (ip), vehicle: Klucel (hydroxypropylcellulose) (HPC)) is 104 % of control and 112 % of control; the T/C (endpoint: median survival time, dose: 20.0 mg/kg/injection, schedule: Q01DX005 (ip), vehicle: Klucel (hydroxypropylcellulose) (HPC)) was 120 % of control and 115 % of control; the T/C (endpoint: median survival time, dose: 80.0 mg/kg/injection, schedule: Q01DX005 (ip), vehicle: Klucel (hydroxypropylcellulose) (HPC)) was 102 % of control and 110 % of control.
For the molecule `O=C1C=C(N2CC2)C(=O)C=C1N1CC1`, the T/C was 102 % of control and 103 % of control and 104 % of control (endpoint: mean survival time, dose: 0.12 mg/kg/injection, schedule: Q01DX009 (ip), vehicle: saline); 102 % of control and 103 % of control and 108 % of control (endpoint: mean survival time, dose: 0.25 mg/kg/injection, schedule: Q01DX009 (ip), vehicle: saline); 103 % of control and 106 % of control and 108 % of control (endpoint: mean survival time, dose: 0.5 mg/kg/injection, schedule: Q01DX009 (ip), vehicle: saline); 89 % of control and 90 % of control and 98 % of control under setting [1].
For `CCN(CC)c1ccc2cc3ccc(=[N+](CC)CC)cc-3oc2c1`, the T/C runs as follows: (endpoint: median survival time, dose: 4.0 mg/kg/injection, schedule: Q01DX005 (ip), vehicle: saline) 104 % of control; (endpoint: median survival time, dose: 8.0 mg/kg/injection, schedule: Q01DX005 (ip), vehicle: saline) 98 % of control; (endpoint: median survival time, dose: 16.0 mg/kg/injection, schedule: Q01DX005 (ip), vehicle: saline) 105 % of control and 113 % of control.
For the molecule `O=C1C=CN(C2OC(CO)C(O)C2O)C(=O)C1` (stereo unspecified), the T/C was 150 % of control (endpoint: mean survival time, dose: 33.0 mg/kg/injection, schedule: Q01DX009 (ip), vehicle: saline); 116 % of control (endpoint: median survival time, dose: 100.0 mg/kg/injection, schedule: Q01DX009 (ip), vehicle: saline); 105 % of control (endpoint: median survival time, dose: 200.0 mg/kg/injection, schedule: Q01DX009 (ip), vehicle: saline); 107 % of control (endpoint: median survival time, dose: 400.0 mg/kg/injection, schedule: Q01DX009 (ip), vehicle: saline).
Take `C[n+]1ccc(Nc2ccc(NC(=O)c3ccc(Nc4cc[n+](C)c5ccc(N)cc45)cc3N)cc2)cc1`: the T/C runs as follows: under setting [1], 103 % of control; (endpoint: mean survival time, dose: 2.0 mg/kg/injection, schedule: Q01DX009 (ip), vehicle: saline) 117 % of control; (endpoint: mean survival time, dose: 4.0 mg/kg/injection, schedule: Q01DX009 (ip), vehicle: saline) 119 % of control; (endpoint: mean survival time, dose: 8.0 mg/kg/injection, schedule: Q01DX009 (ip), vehicle: saline) 120 % of control; (endpoint: mean survival time, dose: 16.0 mg/kg/injection, schedule: Q01DX009 (ip), vehicle: saline) 123 % of control.
On to `COc1ccc(C(=O)/C(Br)=C/C(=O)O)cc1`, for which the T/C was 98 % of control (endpoint: median survival time, dose: 10.0 mg/kg/injection, schedule: Q01DX005 (ip), vehicle: saline); 100 % of control (endpoint: median survival time, dose: 20.0 mg/kg/injection, schedule: Q01DX005 (ip), vehicle: saline); 105 % of control (endpoint: median survival time, dose: 40.0 mg/kg/injection, schedule: Q01DX005 (ip), vehicle: saline).
`C=CCN(C)N=Nc1ccc(C(N)=O)cc1`: the T/C by setting is: (endpoint: mean survival time, dose: 25.0 mg/kg/injection, schedule: Q01DX009 (ip), vehicle: Klucel (hydroxypropylcellulose) (HPC)) 98 % of control; (endpoint: mean survival time, dose: 50.0 mg/kg/injection, schedule: Q01DX009 (ip), vehicle: Klucel (hydroxypropylcellulose) (HPC)) 108 % of control; (endpoint: mean survival time, dose: 100.0 mg/kg/injection, schedule: Q01DX009 (ip), vehicle: Klucel (hydroxypropylcellulose) (HPC)) 118 % of control; (endpoint: mean survival time, dose: 200.0 mg/kg/injection, schedule: Q01DX009 (ip), vehicle: Klucel (hydroxypropylcellulose) (HPC)) 118 % of control.
For `Nc1nc(=S)c2[nH]cnc2[nH]1`, the T/C (endpoint: mean survival time, dose: 0.13 mg/kg/injection, schedule: Q01DX009 (ip), vehicle: other) was 102 % of control; the T/C (endpoint: mean survival time, dose: 0.25 mg/kg/injection, schedule: Q01DX009 (ip), vehicle: other) was 111 % of control; the T/C (endpoint: mean survival time, dose: 0.5 mg/kg/injection, schedule: Q01DX009 (ip), vehicle: other) is 108 % of control; the T/C (endpoint: mean survival time, dose: 1.0 mg/kg/injection, schedule: Q01DX009 (ip), vehicle: other) is 114 % of control.
For `CC(C)=CCC1=C(O)c2ccccc2C(=O)C1=O`, the T/C reads like this: (endpoint: median survival time, dose: 32.0 mg/kg/injection, schedule: Q01DX005 (ip), vehicle: Klucel (hydroxypropylcellulose) (HPC)) 96 % of control and 100 % of control; (endpoint: median survival time, dose: 64.0 mg/kg/injection, schedule: Q01DX005 (ip), vehicle: Klucel (hydroxypropylcellulose) (HPC)) 97 % of control and 102 % of control; (endpoint: median survival time, dose: 128.0 mg/kg/injection, schedule: Q01DX005 (ip), vehicle: Klucel (hydroxypropylcellulose) (HPC)) 92 % of control and 93 % of control; (endpoint: median survival time, dose: 256.0 mg/kg/injection, schedule: Q01DX005 (ip), vehicle: Klucel (hydroxypropylcellulose) (HPC)) 96 % of control and 105 % of control.
For the molecule `Cc1c2ccncc2c(C)c2c1[nH]c1ccccc12`, the T/C by setting is: (endpoint: mean survival time, dose: 10.0 mg/kg/injection, schedule: Q01DX009 (ip), vehicle: saline) 157 % of control; (endpoint: mean survival time, dose: 20.0 mg/kg/injection, schedule: Q01DX009 (ip), vehicle: saline) 157 % of control.
Regarding `CS(C)=O`, the T/C (endpoint: median survival time, dose: 1000.0 mg/kg/injection, schedule: Q01DX005 (ip), vehicle: saline) is 101 % of control and 106 % of control; the T/C (endpoint: median survival time, dose: 1.5 grams/kg/injection, schedule: Q01DX009 (ip), vehicle: saline) is 104 % of control; the T/C (endpoint: median survival time, dose: 2000.0 mg/kg/injection, schedule: Q01DX005 (ip), vehicle: saline) was 98 % of control and 102 % of control; the T/C (endpoint: median survival time, dose: 3.0 grams/kg/injection, schedule: Q01DX009 (ip), vehicle: saline) is 102 % of control; the T/C (endpoint: median survival time, dose: 4000.0 mg/kg/injection, schedule: Q01DX005 (ip), vehicle: saline) was 98 % of control and 102 % of control; the T/C (endpoint: median survival time, dose: 6.0 grams/kg/injection, schedule: Q01DX009 (ip), vehicle: saline) was 104 % of control and 107 % of control. Also, the T/C (endpoint: median survival time, dose: 8000.0 mg/kg/injection, schedule: Q01DX005 (ip), vehicle: saline) was 118 % of control and 107 % of control.
